Data taken from patent publication US10689369B2, “Substituted indazole compounds as RORgammaT inhibitors and uses thereof” (Merck Sharp & Dohme Corp., priority 2015, dated 2020).

What was measured:
[1] = system: murine collagen-induced arthritis model; test: Murine collagen-induced arthritis model; format: in vivo, DBA/1J mice; conditions: oral 3, 10 or 30 mg/kg twice daily; FIG. 4
Method: Female DBA/1J mice (Jackson Laboratories, 7-8 weeks old) were received and allowed to acclimate for about one week. On the day of immunization, an emulsion was freshly prepared by homogenizing equal volumes of Complete Freund's Adjuvant (CFA, Chondrex #7001) and a collagen type-2 solution (bovine source, Chondrex #20022) using a tissue homogenizer, on ice. A volume of 0.1 mL of this emulsion was injected subcutaneously into the base of the tail of each mouse, which was lightly anesthetized with isoflurane. Mice recovered from anesthesia were allowed food and water ad libitum.
Eighteen days after immunization, the mice were injected intraperitoneally with 40 μg of lipopolysaccaride (LPS, Sigma # L4005) in 0.2 mL saline, in order to help synchronize the disease progression in all animals. Seven days after LPS injection, the mice were assessed for knee joint swelling by measurement of each knee joint using digital calipers and computing total joint circumference. The total knee joint circumference of the 4 knee joints was then used to randomize mice into treatment groups of equal average circumference.
This dosing continued twice daily at 8- and 16-hour intervals for the duration of the study. As a positive control, one group of mice received 25 mg/kg Jak inhibitor (JAKi) tofacitinib once per day. Joints were measured 2-3 times per week.

PPARγ = PPARγ (Homo sapiens (Human), UniProt P37231); test: Nuclear hormone receptor selectivity assay (GAL4-NHR-LBD luciferase reporter, HEK293); format: cell-based
Method: In the assay system used, an activated GAL4-nuclear hormone receptor (NHR) fusion construct binds to an upstream activation sequence (UAS) and drives a luciferase reporter gene. […]
HEK293 cells were transfected with GAL4-NHR-LBD construct (pcDNA3.1neo) and the pGL4.31 GAL4-luciferase reporter construct (Promega) and incubated overnight at 37° C. and 5% CO2. After 16-24 hours, cells were harvested and plated at 20 μL (10,000 cells)/well in tissue-culture treated 384 well plate. […] Next, plates are spun briefly and incubated overnight at 37° C. and 5% CO2. […] In agonist mode, test compound was incubated directly with the cells. For receptors that are not constitutively active, a known agonist is also tested as a positive control.
After 16-24 hours, luciferase activity was measured. Plates and luciferase reagent (e.g. One-Glo® or Dual Glo®; Promega, Madison, Wis.) were brought to room temperature. Next, a 25 μL aliquot of luciferase reagent was added to each well. Plates were spun down briefly and incubated at room temperature for 10 minutes. The luciferase signal was measured on an Envision plate reader (Perkin Elmer) set to the ultra-sensitive luminescence setting.

Chain of PPARγ (P37231 238-503, species assumed): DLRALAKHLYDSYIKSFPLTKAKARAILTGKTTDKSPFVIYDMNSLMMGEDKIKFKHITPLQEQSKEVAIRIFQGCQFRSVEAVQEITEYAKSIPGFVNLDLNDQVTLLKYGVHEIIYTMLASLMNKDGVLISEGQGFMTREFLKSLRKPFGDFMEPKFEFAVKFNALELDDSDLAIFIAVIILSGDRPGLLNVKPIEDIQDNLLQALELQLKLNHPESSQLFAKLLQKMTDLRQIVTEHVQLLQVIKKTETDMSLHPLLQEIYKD

Agonist Mode, kind of agonism (PPARγ): (partial agonist)
Structure (SMILES): O=C(O)[C@@H]1CC=C(c2nn(C(=O)c3c(Cl)cccc3C3(C(F)(F)F)CC3)c3c2CC[C@@H](C(=O)N2CCC4(COC4)C2)C3)CC1 [Test Compound]
total joint circumference [1]: dose-dependent decrease in total joint circumference
